# Assay results taken from patent publication US10072026B2, “Crystalline form of 3-((1R,3s,5S)-3-((7-((5-methyl-1H-pyrazol-3-yl)amino)-1,6-naphthyridin-5-yl)amino)-8-azabicyclo[3.2.1]octan-8-yl)propanenitrile” (priority 2015, dated 2018).
# pKi: −log10 of the molar value. Where two headings read alike, the source gives them in different places.
# Legend:
# JAK1 = JAK1 (Homo sapiens (Human), UniProt P23458); assay: LanthaScreen JAK biochemical assay (JAK1); conditions: for Ki: read-out: JAK 1 (pKi) (converted)
# Sequence of JAK1 (P23458 whole entry): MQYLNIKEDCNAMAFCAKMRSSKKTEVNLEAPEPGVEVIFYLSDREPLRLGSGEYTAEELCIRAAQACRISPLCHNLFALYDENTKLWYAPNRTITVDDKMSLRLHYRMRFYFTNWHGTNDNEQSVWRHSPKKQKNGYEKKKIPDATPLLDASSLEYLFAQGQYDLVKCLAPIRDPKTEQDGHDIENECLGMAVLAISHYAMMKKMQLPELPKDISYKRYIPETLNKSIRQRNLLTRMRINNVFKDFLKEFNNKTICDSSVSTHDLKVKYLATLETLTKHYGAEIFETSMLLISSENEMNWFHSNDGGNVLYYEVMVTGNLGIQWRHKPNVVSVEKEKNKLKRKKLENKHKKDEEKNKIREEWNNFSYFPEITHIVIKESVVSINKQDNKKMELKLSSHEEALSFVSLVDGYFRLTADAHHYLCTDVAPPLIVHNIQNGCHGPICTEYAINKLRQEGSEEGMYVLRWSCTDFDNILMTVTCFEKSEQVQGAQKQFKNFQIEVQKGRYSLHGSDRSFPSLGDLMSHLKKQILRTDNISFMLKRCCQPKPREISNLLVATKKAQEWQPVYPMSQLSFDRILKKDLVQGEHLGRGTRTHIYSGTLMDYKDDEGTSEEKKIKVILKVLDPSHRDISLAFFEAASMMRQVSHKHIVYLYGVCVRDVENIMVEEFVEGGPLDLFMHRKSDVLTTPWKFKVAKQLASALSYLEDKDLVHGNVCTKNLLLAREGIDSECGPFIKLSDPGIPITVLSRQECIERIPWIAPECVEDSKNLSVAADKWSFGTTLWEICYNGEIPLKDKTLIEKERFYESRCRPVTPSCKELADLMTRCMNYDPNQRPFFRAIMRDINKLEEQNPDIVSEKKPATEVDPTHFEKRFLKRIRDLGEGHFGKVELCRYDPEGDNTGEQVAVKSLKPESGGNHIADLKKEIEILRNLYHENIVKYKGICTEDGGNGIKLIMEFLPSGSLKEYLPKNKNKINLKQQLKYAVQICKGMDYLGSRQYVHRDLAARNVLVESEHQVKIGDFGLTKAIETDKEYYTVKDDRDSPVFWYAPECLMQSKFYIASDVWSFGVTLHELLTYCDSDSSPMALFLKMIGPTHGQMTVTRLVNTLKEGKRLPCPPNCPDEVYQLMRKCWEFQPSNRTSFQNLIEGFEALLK
# [1] = system: IL-4 induced STAT6 phosphorylation in THP-1 human monocytic cells; assay: Cellular JAK potency assay, THP-1
# [2] = system: IL-13 induced STAT6 phosphorylation in BEAS-2B human lung epithelial cells; assay: AlphaScreen cellular JAK potency assay, BEAS-2B
# JAK2 = JAK2 (Homo sapiens (Human), UniProt O60674); assay: LanthaScreen JAK biochemical assay (JAK2)
# Sequence of JAK2 (O60674 whole entry): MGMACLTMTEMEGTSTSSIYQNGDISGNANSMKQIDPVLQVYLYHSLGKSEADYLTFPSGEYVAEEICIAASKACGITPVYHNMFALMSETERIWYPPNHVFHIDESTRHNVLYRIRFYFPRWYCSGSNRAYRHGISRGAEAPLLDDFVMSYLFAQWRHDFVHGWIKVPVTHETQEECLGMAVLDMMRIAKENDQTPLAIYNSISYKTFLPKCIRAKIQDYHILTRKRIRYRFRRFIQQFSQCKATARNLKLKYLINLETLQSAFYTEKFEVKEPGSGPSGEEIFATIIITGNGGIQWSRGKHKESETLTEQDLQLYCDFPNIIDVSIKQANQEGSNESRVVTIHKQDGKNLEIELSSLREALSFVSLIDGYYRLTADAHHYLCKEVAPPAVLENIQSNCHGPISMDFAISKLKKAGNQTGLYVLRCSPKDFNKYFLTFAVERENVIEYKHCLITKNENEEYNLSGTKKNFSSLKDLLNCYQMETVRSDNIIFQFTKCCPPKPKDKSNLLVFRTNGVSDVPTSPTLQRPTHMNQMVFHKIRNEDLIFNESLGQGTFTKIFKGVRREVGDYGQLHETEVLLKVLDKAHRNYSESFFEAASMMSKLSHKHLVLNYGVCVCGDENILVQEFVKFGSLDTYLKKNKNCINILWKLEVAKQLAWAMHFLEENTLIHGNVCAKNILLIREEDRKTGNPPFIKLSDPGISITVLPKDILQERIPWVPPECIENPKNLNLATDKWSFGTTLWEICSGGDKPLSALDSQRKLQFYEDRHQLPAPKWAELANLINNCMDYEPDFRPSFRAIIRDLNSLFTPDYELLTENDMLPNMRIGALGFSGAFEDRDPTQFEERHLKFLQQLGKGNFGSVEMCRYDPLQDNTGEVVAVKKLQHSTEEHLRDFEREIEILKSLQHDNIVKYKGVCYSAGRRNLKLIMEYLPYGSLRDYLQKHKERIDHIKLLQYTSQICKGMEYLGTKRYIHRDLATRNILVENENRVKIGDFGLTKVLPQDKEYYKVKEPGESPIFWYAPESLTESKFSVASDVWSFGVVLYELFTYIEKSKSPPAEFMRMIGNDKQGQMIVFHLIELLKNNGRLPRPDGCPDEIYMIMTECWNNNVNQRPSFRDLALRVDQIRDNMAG
# [3] = Homo sapiens, THP-1, read-out: THP-1 IL4 pIC50 (converted)
# [4] = Homo sapiens, BEAS-2B, read-out: BEAS2B pIC50 (converted)
# [5] = IL-4 induced STAT6 phosphorylation, THP-1 cells
# [6] = IL-13 induced STAT6 phosphorylation, BEAS-2B cells
# [7] = THP-1 cells, IL-4 induced STAT6 phosphorylation
# [8] = BEAS-2B cells, IL-13 induced STAT6 phosphorylation
SMILES,"IC50 [1, 3] [µM]",JAK 1 (pKi) (JAK1),"THP-1 IL4 pIC50 [1, 5]",JAK 2 (pKi) (JAK2),also measured
COc1cnc2cc(Nc3cc(C)[nH]n3)nc(N[C@@H]3C[C@H]4CC[C@@H](C3)N4CC(F)(F)F)c2c1 [Example 6-17],< 0.0316,–,–,–,"Ki (JAK1): 0.0001 to 0.001 µM; IC50 [2, 4]: < 0.0316 µM"
COc1ccc2c(N[C@@H]3C[C@H]4CC[C@@H](C3)N4CC(C)C)nc(Nc3cc(C)[nH]n3)cc2n1 [Example 5-4],–,B (B represents a pKi value between 9 and 10 (Ki between 1 nM and 0.1 nM)),A (A represents a pEC50 value≥7.5 (EC50≤32 nM)),–,"BEAS2B pIC50 [2, 6]: A (A represents a pEC50 value≥7.5 (EC50≤32 nM))"
"CCS(=O)(=O)N1[C@@H]2CCC[C@H]1C[C@H](Nc1nc(Nc3cc(C)[nH]n3)cc3ncccc13)C2 [Example 10, N^5-((1R,3s,5S)-9-(ethylsulfonyl)-9-azabicyclo[3.3.1]nonan-3-yl)-N^7-(5-methyl-1H-pyrazol-3-yl)-1,6-naphthyridine-5,7-diamine]",< 0.0316,–,–,–,"IC50 [2, 4]: < 0.0316 µM"
Cc1cc(Nc2cc3ncccc3c(N[C@@H]3C[C@H]4CCC[C@@H](C3)N4S(=O)(=O)N3CCCC3)n2)n[nH]1 [Example 4-27],–,–,A (A represents a pEC50 value≥7.5 (EC50≤32 nM)),–,"BEAS2B pIC50 [2, 6]: A (A represents a pEC50 value≥7.5 (EC50≤32 nM))"
Cc1cc(Nc2cc3nc(CN4CCOCC4)ccc3c(N[C@@H]3C[C@H]4CCC[C@@H](C3)N4S(=O)(=O)c3cccnc3)n2)n[nH]1 [Example 5-27],–,–,A (A represents a pEC50 value≥7.5 (EC50≤32 nM)),–,"BEAS2B pIC50 [2, 6]: A (A represents a pEC50 value≥7.5 (EC50≤32 nM))"
Cc1cc(Nc2cc3ncccc3c(N[C@@H]3C[C@H]4CCC[C@@H](C3)N4Cc3ccc(C#N)nc3)n2)n[nH]1 [Example 1-54],–,–,–,–,"BEAS2B pIC50 [2, 6]: B (B represents a pEC50 value between 6.7 and 7.5 (EC50 between 200 nM and 32 nM))"
COc1ccnc2cc(Nc3cc(C)[nH]n3)nc(N[C@@H]3C[C@H]4CC[C@@H](C3)N4C(=O)C(F)F)c12 [Example 7-5],0.0316 to 0.2,–,–,–,"pKi (JAK1): 9.00 to 10.00; IC50 [2, 4]: 0.0316 to 0.2 µM"
COc1cnc2cc(Nc3cc(C)[nH]n3)nc(N[C@@H]3C[C@H]4CC[C@@H](C3)N4CC(C)C)c2c1 [Example 6-14],–,B (B represents a pKi value between 9 and 10 (Ki between 1 nM and 0.1 nM)),–,–,"THP-1 IL4 pIC50 [1, 7]: A (A represents a pEC50 value≥7.5 (EC50≤32 nM)); BEAS2B pIC50 [2, 8]: A (A represents a pEC50 value≥7.5 (EC50≤32 nM))"
Cc1cc(Nc2nc(N[C@@H]3C[C@H]4CC[C@@H](C3)N4S(=O)(=O)c3cccnc3)c3cccnc3c2F)n[nH]1 [Example 8-4],–,B (B represents a pKi value between 9 and 10 (Ki between 1 nM and 0.1 nM)),–,–,"THP-1 IL4 pIC50 [1, 7]: B (B represents a pEC50 value between 6.7 and 7.5 (EC50 between 200 nM and 32 nM)); BEAS2B pIC50 [2, 8]: B (B represents a pEC50 value between 6.7 and 7.5 (EC50 between 200 nM and 32 nM))"
Cc1cc(Nc2nc(N[C@@H]3C[C@H]4CC[C@@H](C3)N4S(=O)(=O)c3cncc(F)c3)c3cccnc3c2F)n[nH]1 [Example 8-5],–,B (B represents a pKi value between 9 and 10 (Ki between 1 nM and 0.1 nM)),–,–,"THP-1 IL4 pIC50 [1, 7]: B (B represents a pEC50 value between 6.7 and 7.5 (EC50 between 200 nM and 32 nM)); BEAS2B pIC50 [2, 8]: A (A represents a pEC50 value≥7.5 (EC50≤32 nM))"
COc1ccc2c(N[C@@H]3C[C@H]4CC[C@@H](C3)N4CCCC#N)nc(Nc3cc(C)[nH]n3)cc2n1 [Example 5-2],–,B (B represents a pKi value between 9 and 10 (Ki between 1 nM and 0.1 nM)),B (B represents a pEC50 value between 6.7 and 7.5 (EC50 between 200 nM and 32 nM)),–,"BEAS2B pIC50 [2, 6]: A (A represents a pEC50 value≥7.5 (EC50≤32 nM))"
CCS(=O)(=O)N1[C@@H]2CC[C@H]1C[C@H](Nc1nc(Nc3cc(C)[nH]n3)cc3nc(CN4CCOCC4)ccc13)C2 [Example 5-16],0.0316 to 0.2,–,–,–,"IC50 [2, 4]: 0.0316 to 0.2 µM"
Cc1cc(Nc2cc3nc(CN4CCOCC4)ccc3c(N[C@@H]3C[C@H]4CC[C@@H](C3)N4S(=O)(=O)N3CCC3)n2)n[nH]1 [Example 5-21],< 0.0316,–,–,–,"IC50 [2, 4]: < 0.0316 µM"
Cc1cc(Nc2cc3ncccc3c(N[C@@H]3C[C@H]4CC[C@@H](C3)N4Cc3cccnc3)n2)n[nH]1 [Example 1-16],–,B (B represents a pKi value between 9 and 10 (Ki between 1 nM and 0.1 nM)),B (B represents a pEC50 value between 6.7 and 7.5 (EC50 between 200 nM and 32 nM)),B (B represents a pKi value between 9 and 10 (Ki between 1 nM and 0.1 nM)),–
COC(=O)c1cnc2cc(Nc3cc(C)[nH]n3)nc(N[C@@H]3C[C@H]4CC[C@@H](C3)N4CCC#N)c2c1 [Example 6-32],–,A (A represents a pKi value≥10 (Ki≤0.1 nM)),–,A (A represents a pKi value≥10 (Ki≤0.1 nM)),"THP-1 IL4 pIC50 [1, 7]: A (A represents a pEC50 value≥7.5 (EC50≤32 nM))"
Cc1cc(Nc2cc3ncccc3c(N[C@@H]3C[C@H]4CCC[C@@H](C3)N4CC(=O)OC(C)(C)C)n2)n[nH]1 [Example 1-36],–,B (B represents a pKi value between 9 and 10 (Ki between 1 nM and 0.1 nM)),B (B represents a pEC50 value between 6.7 and 7.5 (EC50 between 200 nM and 32 nM)),B (B represents a pKi value between 9 and 10 (Ki between 1 nM and 0.1 nM)),–
Cc1cnc2c(F)c(Nc3cc(C)[nH]n3)nc(N[C@@H]3C[C@H]4CCC[C@@H](C3)N4CCC#N)c2c1 [Example 8-21],–,B (B represents a pKi value between 9 and 10 (Ki between 1 nM and 0.1 nM)),–,B (B represents a pKi value between 9 and 10 (Ki between 1 nM and 0.1 nM)),"THP-1 IL4 pIC50 [1, 7]: B (B represents a pEC50 value between 6.7 and 7.5 (EC50 between 200 nM and 32 nM))"
Cc1ccc(S(=O)(=O)N2[C@@H]3CCC[C@H]2C[C@H](Nc2nc(Nc4cc(C)[nH]n4)cc4ncccc24)C3)cn1 [Example 4-25],–,B (B represents a pKi value between 9 and 10 (Ki between 1 nM and 0.1 nM)),A (A represents a pEC50 value≥7.5 (EC50≤32 nM)),B (B represents a pKi value between 9 and 10 (Ki between 1 nM and 0.1 nM)),–
C=CCOC(=O)N1[C@@H]2CC[C@H]1C[C@H](Nc1nc(Nc3cc(C)[nH]n3)cc3nc(CN4CCOCC4)ccc13)C2 [Example 5-17],–,–,B (B represents a pEC50 value between 6.7 and 7.5 (EC50 between 200 nM and 32 nM)),–,"BEAS2B pIC50 [2, 6]: A (A represents a pEC50 value≥7.5 (EC50≤32 nM))"
CCS(=O)(=O)N1[C@@H]2CC[C@H]1C[C@H](Nc1nc(Nc3cc(C)[nH]n3)c(F)c3ncccc13)C2 [Example 8-3],–,B (B represents a pKi value between 9 and 10 (Ki between 1 nM and 0.1 nM)),–,B (B represents a pKi value between 9 and 10 (Ki between 1 nM and 0.1 nM)),"THP-1 IL4 pIC50 [1, 7]: A (A represents a pEC50 value≥7.5 (EC50≤32 nM))"
COCCOC(=O)N1[C@@H]2CCC[C@H]1C[C@H](Nc1nc(Nc3cc(C)[nH]n3)cc3ncccc13)C2 [Example 3-9],–,B (B represents a pKi value between 9 and 10 (Ki between 1 nM and 0.1 nM)),A (A represents a pEC50 value≥7.5 (EC50≤32 nM)),B (B represents a pKi value between 9 and 10 (Ki between 1 nM and 0.1 nM)),–
Cc1cc(Nc2cc3ncccc3c(N[C@@H]3C[C@H]4CC[C@@H](C3)N4S(=O)(=O)C3CCCC3)n2)n[nH]1 [Example 4-5],< 0.0316,–,–,–,Ki (JAK1): 0.0001 to 0.001 µM; pKi (JAK2): 9.00 to 10.00
"CNC(=O)CN1[C@@H]2CCC[C@H]1C[C@H](Nc1nc(Nc3cc(C)[nH]n3)cc3ncccc13)C2 [Example 17, N-methyl-2-((1R,3s,5S)-3-((7-((5-methyl-1H-pyrazol-3-yl)amino)-1,6-naphthyridin-5-yl)amino)-9-azabicyclo[3.3.1]nonan-9-yl)acetamide]",0.0316 to 0.2,–,–,–,"IC50 [2, 4]: 0.0316 to 0.2 µM"
"Cc1cc(Nc2cc3nc(CN4CCOCC4)ccc3c(N[C@@H]3C[C@H]4CC[C@@H](C3)N4CC(F)(F)F)n2)n[nH]1 [Example 15, N^7-(5-methyl-1H-pyrazol-3-yl)-2-(morpholinomethyl)-N^5-((1R,3s,5S)-8-(2,2,2-trifluoroethyl)-8-azabicyclo[3.2.1]octan-3-yl)-1,6-naphthyridine-5,7-diamine]",< 0.0316,–,–,–,"IC50 [2, 4]: < 0.0316 µM"
Cc1cc(Nc2cc3ncccc3c(N[C@@H]3C[C@H]4CC[C@@H](C3)N4S(=O)(=O)N3CCC3)n2)n[nH]1 [Example 4-6],< 0.0316,–,–,–,Ki (JAK1): 0.0001 to 0.001 µM; pKi (JAK2): 9.00 to 10.00
Cc1cnc2c(F)c(Nc3cc(C)[nH]n3)nc(N[C@@H]3C[C@H]4CC[C@@H](C3)N4S(=O)(=O)N3CC(C#N)C3)c2c1 [Example 8-19],–,B (B represents a pKi value between 9 and 10 (Ki between 1 nM and 0.1 nM)),–,B (B represents a pKi value between 9 and 10 (Ki between 1 nM and 0.1 nM)),"THP-1 IL4 pIC50 [1, 7]: C (C represents a pEC50 value<6.7 (EC50>200 nM))"
Cc1cc(Nc2cc3ncccc3c(N[C@@H]3C[C@H]4CC[C@@H](C3)N4CC(=O)OC(C)C)n2)n[nH]1 [Example 1-4],–,B (B represents a pKi value between 9 and 10 (Ki between 1 nM and 0.1 nM)),B (B represents a pEC50 value between 6.7 and 7.5 (EC50 between 200 nM and 32 nM)),B (B represents a pKi value between 9 and 10 (Ki between 1 nM and 0.1 nM)),–
CCC(=O)N1[C@@H]2CCC[C@H]1C[C@H](Nc1nc(Nc3cc(C)[nH]n3)cc3ncccc13)C2 [Example 2-15],–,B (B represents a pKi value between 9 and 10 (Ki between 1 nM and 0.1 nM)),A (A represents a pEC50 value≥7.5 (EC50≤32 nM)),B (B represents a pKi value between 9 and 10 (Ki between 1 nM and 0.1 nM)),–
Cc1cc(Nc2cc3ncc(S(C)(=O)=O)cc3c(N[C@@H]3C[C@H]4CC[C@@H](C3)N4CCF)n2)n[nH]1 [Example 6-54],–,B (B represents a pKi value between 9 and 10 (Ki between 1 nM and 0.1 nM)),–,B (B represents a pKi value between 9 and 10 (Ki between 1 nM and 0.1 nM)),"THP-1 IL4 pIC50 [1, 7]: C (C represents a pEC50 value<6.7 (EC50>200 nM))"
